Laboratory results taken from BindingDB's records for patent US11773085 (Foghorn Therapeutics, 2023).

Molecular target: T1, Bromodomain-containing protein 9 [133-239] (Homo sapiens, UniProt Q9H8M2)
T1 construct: 133-239
T1 sequence (Q9H8M2 whole entry): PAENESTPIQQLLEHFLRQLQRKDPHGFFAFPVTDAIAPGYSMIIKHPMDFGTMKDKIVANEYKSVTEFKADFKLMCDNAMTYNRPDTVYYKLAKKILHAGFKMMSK
Assay: BRD9 Bromodomain TR-FRET Competition Binding Assay
Protocol: A mixture of biotinylated-ligand and SureLight Allophycocyanin-Streptavidin (APC-SA, PerkinElmer AD0201) in 50 mM HEPES (pH 7.4), 50 mM NaCl, 1 mM TCEP (pH 7), 0.01% (v/v) Tween-20, 0.01% (w/v) bovine serum albumin was added to a white 384-well PerkinElmer Proxiplate Plus plate. DMSO or 3-fold serially diluted compounds were then added to the Proxiplate followed by addition of Flag-BRD9. After a 10 minute incubation at room temperature, Eu-W1024 anti-FLAG (PerkinElmer, AD0273) was added.

`CCS(=O)(=O)N(C)Cc1c(OC)cc(-c2cn(C)c(=O)c3cnccc23)cc1OC` [US11773085, Compound B35] gave an IC50 of less than 0.01 µM.
`COc1cc(-c2cn(C)c(=O)c3cnccc23)cc(OC)c1CN(C)C(=O)CCCCCOc1cccc2c1C(=O)N(C1CCC(=O)NC1=O)C2=O` (configuration not stated) [US11773085, Compound D4] showed an IC50 of less than 0.01 µM.
